Laboratory results reported in US20140295402A1, “METHODS AND MATERIALS FOR PROLONGING USEFUL STORAGE OF RED BLOOD CELL PREPARATIONS AND PLATELET PREPARATIONS” (priority 2011, published 2014).

Tests used:
platelets = assay: ATP secretion of platelets induced with 1 μM thrombin (Zylux luminometer); assay type: cell-based, human; conditions: after 24 hours storage at room temperature
Experimental: ATP secretion was performed using a Zylux luminometer where the secretion was induced using 1 μM thrombin. […] However, the CO2 treated platelets had approximately 80% of baseline secretion after 24 hours storage.

Bacillus cereus [1] = assay: Bacterial growth in spiked PRP, quantitative culture after 30 hours; assay type: cell-based; conditions: PRP spiked with 10 CFU, approximately 30 hours at room temperature
Experimental: (§1) Clinical isolates of Bacillus cereus and Pseudomonas aeruginosa were spiked into control and CO2 treated platelets at a concentration of 10 CFU (i.e., 10 bacteria total, not 10 CFU/mL). The platelets were stored for approximately 30 hours at room temperature on a platelet agitator. After 30 hours, quantitative culture was performed on serial dilutions of the platelet sample on 5% sheep blood agar plates.

Pseudomonas aeruginosa = assay: as above; assay type: cell-based; conditions: PRP spiked with 10 CFU, approximately 30 hours at room temperature
Experimental: as §1

Corynebacterium = assay: Bacterial growth in inoculated apheresis platelet unit, quantitative culture; assay type: cell-based; conditions: platelets exposed to 99% CO2 for 10 minutes
Experimental: (§2) Outdated apheresis platelet unit (day 6) was obtained from the Mayo Clinic components laboratory. About half of the platelet unit was perfused with 99% CO2 gas for 10 minutes with mixing. Control samples without CO2 exposure and CO2-treated samples of 10 mL volume were inoculated with clinical isolates of eight different organisms. Control and CO2 samples were spiked with identical bacterial loads. Quantitative culture using 5% sheep blood agar plates was conducted immediately following inoculation (0 hours) and at 24 and 48 hour time points. Time 0 hour inoculation load was selected to compensate for observed “spike and die” in outdated apheresis platelet units. The time 0 hour value represented the value of the initial spike.

E. coli = assay: as above; assay type: cell-based; conditions: platelets exposed to 99% CO2 for 10 minutes
Experimental: as §2

S. pyogenes = assay: as above; assay type: cell-based; conditions: platelets exposed to 99% CO2 for 10 minutes
Experimental: as §2

Bacillus cereus [2] = assay: as above; assay type: cell-based; conditions: platelets exposed to 99% CO2 for 10 minutes
Experimental: as §2

Enterobacter cloacae = assay: as above; assay type: cell-based; conditions: platelets exposed to 99% CO2 for 10 minutes
Experimental: as §2

S. epidermidis = assay: as above; assay type: cell-based; conditions: platelets exposed to 99% CO2 for 10 minutes
Experimental: as §2

Klebsiella oxytoca = assay: as above; assay type: cell-based; conditions: platelets exposed to 99% CO2 for 10 minutes
Experimental: as §2

S. aureus = assay: as above; assay type: cell-based; conditions: platelets exposed to 99% CO2 for 10 minutes
Experimental: as §2

[3] = tested on: red blood cell preparation; assay: Storage of red blood cell preparations in blood bags with CO2: pCO2, lactate, glucose and pH levels; assay type: cell-based; conditions: for Glucose / Lactate: red blood cell preparation
Experimental: Red blood cells were collected and processed using standard techniques and stored in standard blood bags. Prior to collecting the red blood cells, an empty blood bag containing anti-coagulated citrate phosphate dextrose with adenine (AS1) was flushed with CO2 for one minute. The collection bag was then filled with blood from a donor. Next, 50 cubic centimeters of CO2 were added to the bag via the sterile docking port. The bag was gently inverted for 30 seconds and then placed upright. Using an empty syringe, the 50 cubic centimeters of air/CO2 was removed from the bag through the sterile docking port. The controls were red blood cell preparations placed in blood bags not flushed with CO2 and not exposed to 50 cubic centimeters of CO2.
The control and CO2 treated red blood cell preparations were tested for pCO2 (or pO2) levels, lactate levels, glucose levels, and pH levels at days 0, 14, and 21 (Table 1). […] This fall in pH is reversible, and pH levels can return to normal values of […] when normal pCO2 levels (e.g., 40-60 mmHg) are re-established.

[4] = tested on: platelets in platelet-rich plasma (PRP); assay: Platelet aggregation of PRP by optical aggregometry after equilibration with 99% CO2; assay type: cell-based, human
Experimental: Fresh human whole blood was drawn into 3.2% sodium citrate, and platelet-rich plasma (PRP) was prepared. Control citrated PRP was stored at room temperature in a polypropylene tube. CO2 was exposed to the air/fluid interface of PRP using a 99.9% CO2 tank. CO2 was administered for approximately 60 seconds during which time the pH dropped from an average value of 7.4 to 6.4.
Using a Chronolog 700 platelet aggregometer, platelet aggregation was performed pre- and post-CO2 to ADP, AA, and Epi. Platelet aggregometry was carried out as described elsewhere (Born and Cross, J. Physiol., 168:178-195 (1963)). The assay was performed at 37° C. with a sample stir speed of 1200 r.p.m. Each sample consisted of 450 μL platelet rich plasma.
In another study, the impact of CO2 on platelet function was explored by equilibrating platelet-rich plasma (PRP) with 99% CO2. The PRP was prepared by low-speed centrifugation of blood anticoagulated with 3.2% sodium citrate and kept in capped polypropylene tubes. Platelet function was measured by optical aggregometry with ADP and epinephrine as triggers. Equilibration with CO2 under a positive flow of gas was monitored by the fall in pH from 7.2 to 6.4, which typically occurs within 60 seconds. Degassing of CO2 by a flow of room air over the PRP was verified by the return to pH 7.2. Immediately after removal of the PRP from the CO2 atmosphere, aggregation to ADP and epinephrine was suppressed (FIG. 18, first set). When the samples had returned to pH 7.2, aggregation to both triggers was restored (FIG. 18, center set).

[5] = storage with CO2, compared to controls

In the case of `O=C=O` [CO2], the “ATP secretion, of baseline” value (platelets) is reported as “approximately 80%”, the bacterial growth (Bacillus cereus [1]) is reported as “no growth” and the bacterial growth (Pseudomonas aeruginosa) is reported as “no growth”. The bacterial growth (Corynebacterium; 0 hours (initial spike)) was 7.90E+02 CFU/mL, the bacterial growth (Corynebacterium; 24 hours) was 2.70E+02 CFU/mL and the bacterial growth (Corynebacterium; 48 hours) was 4.20E+02 CFU/mL. For the same compound, the bacterial growth (E. coli; 24 hours) was 1.80E+02 CFU/mL, the bacterial growth (E. coli; 48 hours) was 5.20E+03 CFU/mL and the bacterial growth (S. pyogenes; 0 hours (initial spike)) was 1.55E+03 CFU/mL. The bacterial growth (S. pyogenes; 24 hours) was 1.20E+05 CFU/mL, the bacterial growth (S. pyogenes; 48 hours) was 8.00E+07 CFU/mL and the bacterial growth (Bacillus cereus [2]; 0 hours (initial spike)) was 1.00E+01 CFU/mL. For the same compound, the bacterial growth (Bacillus cereus [2]; 24 hours) was “no”, the bacterial growth (Bacillus cereus [2]; 48 hours) was “no” and the bacterial growth (Enterobacter cloacae; 0 hours (initial spike)) was 1.22E+03 CFU/mL. For the same compound, the bacterial growth (Enterobacter cloacae; 24 hours) was 1.20E+06 CFU/mL, the bacterial growth (Enterobacter cloacae; 48 hours) was 8.60E+07 CFU/mL and the bacterial growth (S. epidermidis; 0 hours (initial spike)) was 6.10E+02 CFU/mL. For the same compound, the bacterial growth (S. epidermidis; 24 hours) was 3.30E+02 CFU/mL, the bacterial growth (S. epidermidis; 48 hours) was 4.20E+02 CFU/mL and the bacterial growth (Klebsiella oxytoca; 0 hours (initial spike)) was 8.10E+02 CFU/mL. It also gave a bacterial growth (Klebsiella oxytoca; 24 hours) of 1.15E+04 CFU/mL, a bacterial growth (Klebsiella oxytoca; 48 hours) of 4.30E+05 CFU/mL and a bacterial growth (S. aureus; 0 hours (initial spike)) of 1.17E+03 CFU/mL. For the same compound, the bacterial growth (S. aureus; 24 hours) was 3.20E+03 CFU/mL, the bacterial growth (S. aureus; 48 hours) was 2.70E+04 CFU/mL and the Glucose ([3]; day 0 of storage) was 571 mg/dL. For the same compound, the Lactate ([3]; day 0 of storage) was 1.2 µmol/mL, the Glucose ([3]; day 14 of storage) was 503 mg/dL and the Lactate ([3]; day 14 of storage) was 5 µmol/mL. The Glucose ([3]; day 21 of storage) was 478 mg/dL, the Lactate ([3]; day 21 of storage) was 5.3 µmol/mL and the glucose consumption [3, 5] was “inhibition”. The lactate formation [3, 5] was “inhibition”, the aggregation ([4]; after 24 hours under CO2) was “equivalent to that of controls” and the “aggregation to ADP and epinephrine” value ([4]; after samples had returned to pH 7.2) was “restored”. The “aggregation to ADP and epinephrine” value ([4]; immediately after removal of the PRP from the CO2 atmosphere) was “suppressed”.
